Tests used:
[1] = target: T1, recombinant human FLAP protein (Homo sapiens, UniProt P20292); experiment: FLAP binding assay (SPA, displacement of [125I]L-691,831); conditions: membranes of sf9 cells expressing recombinant human FLAP; [125I]L-691,831 probe; read-out: FLAP binding IC50
T1 construct: made in house; host or cells: Sf9 insect cells (100,000×g membrane pellet used)
T1 sequence (P20292 1-161): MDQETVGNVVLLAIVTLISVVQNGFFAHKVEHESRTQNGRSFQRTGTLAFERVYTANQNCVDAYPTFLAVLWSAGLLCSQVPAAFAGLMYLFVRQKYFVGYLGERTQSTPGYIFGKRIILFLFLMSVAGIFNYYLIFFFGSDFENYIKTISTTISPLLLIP
Summary of the method: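 Membranes from sf9 cells expressing human FLAP in pH 7.5 Tris buffer (MgCl2, EDTA, PMSF). Non-specific binding defined with 10 μM cold L-691,831.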

[2] = tested on: synthesis of LTB4 in human whole blood; experiment: Human whole blood assay (inhibition of LTB4 synthesis, calcimycin stimulated); assay type: cell-based; conditions: heparinized human whole blood, calcimycin 20 μM, plasma LTB4
Summary of the method: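 Whole-blood cellular format, heparinized human donors: 15 min compound pretreatment, then 30 min calcimycin stimulation (20 μM final), both at 37° C. Low-speed centrifugation yields plasma, in which LTB4 is read by homogeneous time-resolved fluorescence immunoassay.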

IC50 [1]	IC50 [2]	SMILES
46 nM	4300 nM	CC(C)C(C)(c1ccc(-c2cnc(N)nc2)cc1)c1noc(C2CCCC(=O)N2)n1 (centres unmarked) [Example 167, 6-(3-{2-[4-(2-aminopyrimidin-5-yl)phenyl]-3-methylbutan-2-yl}-1,2,4-oxadiazol-5-yl)piperidin-2-one]
63 nM	1500 nM	CC(C)C(C)(c1ccc(-c2cnc(N)nc2)cc1)c1noc(C(=O)N2CCOCC2)n1 (centres unmarked) [Example 90, (3-{2-[4-(2-aminopyrimidin-5-yl)phenyl]-3-methylbutan-2-yl}-1,2,4-oxadiazol-5-yl)(morpholin-4-yl)methanone]
11 nM	220 nM	CN(C)C(=O)Cn1cc(-c2nc(C(C)(c3ccc(-c4cnc(N)nc4F)cc3)C3CC3)no2)cn1 (centres unmarked) [Example 275, 2-[4-(3-{1-[4-(2-Amino-4-fluoro-pyrimidin-5-yl)-phenyl]-1-cyclopropyl-ethyl}-[1,2,4]oxadiazol-5-yl)-pyrazol-1-yl]-N,N-dimethyl-acetamide]
6.8 nM	150 nM	CC(C)(CO)Nc1cnc(-c2nc([C@](C)(c3ccc(-c4cnc(N)nc4)cc3)C3CC3)no2)cn1 (single isomer, unassigned) [Example 57]
3.8 nM	530 nM	COc1ccc(-c2nc(C(C)(c3ccc(-c4cnc(N)nc4)cc3)C(C)C)no2)cn1 (centres unmarked) [Example 8, 5-(4-{2-[5-(6-methoxypyridin-3-yl)-1,2,4-oxadiazol-3-yl]-3-methylbutan-2-yl}phenyl)pyrimidin-2-amine]
13 nM	150 nM	CC(c1ccc(-c2cnc(N)nc2)cc1)(c1noc(N2CCCC2)n1)C1CC1 (centres unmarked) [Example 204, 5-{4-[1-Cyclopropyl-1-(5-pyrrolidin-1-yl-[1,2,4]oxadiazol-3-yl)-ethyl]-phenyl}-pyrimidin-2-ylamine]
92 nM	700 nM	CC(c1ccc(-c2cnc(N)nc2)cc1)(c1noc(-c2cn(C3COC3)cn2)n1)C1CC1 (centres unmarked) [Example 207, 5-(4-{1-Cyclopropyl-1-[5-(1-oxetan-3-yl-1H-imidazol-4-yl)-[1,2,4]oxadiazol-3-yl]-ethyl}-phenyl)-pyrimidin-2-ylamine]
4.5 nM	89 nM	CN(C)C(=O)Cn1cc(-c2nc([C@@](C)(c3ccc(-c4cnc(N)c(F)c4)cc3)C3CC3)no2)cn1 [Example 291, 2-[4-(3-{(R)-1-[4-(6-Amino-5-fluoro-pyridin-3-yl)-phenyl]-1-cyclopropyl-ethyl}-[1,2,4]oxadiazol-5-yl)-pyrazol-1-yl]-N,N-dimethyl-acetamide]
66 nM	3100 nM	CC(C)C(C)(c1ccc(-c2cnc(N)nc2)cc1)c1noc(C2CCCNC2)n1 (centres unmarked) [Example 113, 5-(4-{3-methyl-2-[5-(piperidin-3-yl)-1,2,4-oxadiazol-3-yl]butan-2-yl}phenyl)pyrimidin-2-amine]
3.1 nM	26 nM	CC(C)C(C)(c1ccc(-c2cnc(N)nc2)cc1)c1noc(-c2cnn(CCN3CCOCC3)c2)n1 (centres unmarked) [Example 144, 5-{4-[3-methyl-2-(5-{1-[2-(morpholin-4-yl)ethyl]-1H-pyrazol-4-yl}-1,2,4-oxadiazol-3-yl)butan-2-yl]phenyl}pyrimidin-2-amine]
5.9 nM	17 nM	COCCn1cc(-c2nc([C@@](C)(c3ccc(-c4cnc(N)cn4)cc3)C3CC3)no2)cn1 [Example 191, 5-[4-((R)-1-Cyclopropyl-1-{5-[1-(2-methoxy-ethyl)-1H-pyrazol-4-yl]-[1,2,4]oxadiazol-3-yl}-ethyl)-phenyl]-pyrazin-2-ylamine]
2.8 nM	330 nM	CC(C)C(C)(c1ccc(-c2cnc(N)nc2)cc1)c1noc(-c2cnco2)n1 (centres unmarked) [Example 132, 5-(4-{3-methyl-2-[5-(1,3-oxazol-5-yl)-1,2,4-oxadiazol-3-yl]butan-2-yl}phenyl)pyrimidin-2-amine]
4.7 nM	200 nM	CN(C)C(=O)Cn1cc(-c2nc([C@@](C)(c3ccc(-c4cnc5c(c4)CCN5)cc3)C3CC3)no2)cn1 [Example 284, 2-[4-(3-{(R)-1-Cyclopropyl-1-[4-(2,3-dihydro-1H-pyrrolo[2,3-b]pyridin-5-yl)-phenyl]-ethyl}-[1,2,4]oxadiazol-5-yl)-pyrazol-1-yl]-N,N-dimethyl-acetamide]
15 nM	2900 nM	CC(C)C(C)(c1ccc(-c2cnc(N)nc2)cc1)c1noc(C2CCCN(C(=O)OC(C)(C)C)C2)n1 (centres unmarked) [Example 111, tert-butyl 3-(3-{2-[4-(2-aminopyrimidin-5-yl)phenyl]-3-methylbutan-2-yl}-1,2,4-oxadiazol-5-yl)piperidine-1-carboxylate]
9 nM	> 5000 nM	CC(C)C(C)(c1ccc(-c2cnc(N)nc2)cc1)c1noc(-c2cnn(C(C)(C)C(=O)O)c2)n1 (centres unmarked) [Example 160, 2-[4-(3-{2-[4-(2-aminopyrimidin-5-yl)phenyl]-3-methylbutan-2-yl}-1,2,4-oxadiazol-5-yl)-1H-pyrazol-1-yl]-2-methylpropanoic acid]
24 nM	230 nM	CC(C)C(C)(c1ccc(-c2cnc(N)nc2)cc1)c1noc(N2CCN(C(=O)N(C)C)CC2)n1 (centres unmarked) [Example 269, 4-(3-{1-[4-(2-Amino-pyrimidin-5-yl)-phenyl]-1,2-dimethyl-propyl}-[1,2,4]oxadiazol-5-yl)-piperazine-1-carboxylic acid dimethylamide]
1.6 nM	200 nM	CC(C)[C@](C)(c1ccc(-c2cnc(N)nc2)cc1)c1noc(-c2ccnn2C)n1 [Example 31, 5-(4-{(2R)-3-methyl-2-[5-(1-methyl-1H-pyrazol-5-yl)-1,2,4-oxadiazol-3-yl]butan-2-yl}phenyl)pyrimidin-2-amine]
2.8 nM	77 nM	CC(C)C(C)(c1ccc(-c2cnc(N)nc2)cc1)c1noc(-c2cnccn2)n1 (centres unmarked) [Example 137, 5-(4-{3-methyl-2-[5-(pyrazin-2-yl)-1,2,4-oxadiazol-3-yl]butan-2-yl}phenyl)pyrimidin-2-amine]
1.1 nM	66 nM	CN(C)C(=O)Cn1cc(-c2nc([C@@](C)(c3ccc(-c4ccc(N)nc4)cc3)C3CC3)no2)cn1 [Example 172, 2-[4-(3-{(R)-1-[4-(6-Amino-pyridin-3-yl)-phenyl]-1-cyclopropyl-ethyl}-[1,2,4]oxadiazol-5-yl)-pyrazol-1-yl]-N,N-dimethyl-acetamide]
12 nM	170 nM	CN(C)C(=O)Cn1cc(-c2nc(C(C)(c3ccc(-c4cnc(N)c(F)c4)cc3)C3CC3)no2)cn1 (centres unmarked) [Example 243, 2-[4-(3-{1-[4-(6-Amino-5-fluoro-pyridin-3-yl)-phenyl]-1-cyclopropyl-ethyl}-[1 ,2,4]oxadiazol-5-yl)-pyrazol-1-yl]-N,N-dimethyl-acetamide]
190 nM	> 5000 nM	CC(=O)N1CCC(NC(=O)c2nc(C(C)(c3ccc(-c4cnc(N)nc4)cc3)C(C)C)no2)CC1 (centres unmarked) [Example 86, N-(1-acetylpiperidin-4-yl)-3-{2-[4-(2-aminopyrimidin-5-yl)phenyl]-3-methylbutan-2-yl}-1,2,4-oxadiazole-5-carboxamide]
11 nM	180 nM	COCCNc1nc(C(C)(c2ccc(-c3cnc(N)nc3)cc2)C(C)C)no1 (centres unmarked) [Example 81, 5-[4-(2-{5-[(2-methoxyethyl)amino]-1,2,4-oxadiazol-3-yl}-3-methylbutan-2-yl)phenyl]pyrimidin-2-amine]
